Read-outs that look alike come from different tables or passages of the source.
Test system: gastric acid secretion in the perfused rat stomach
Experiment: antisecretory activity in the perfused rat stomach (inhibition of histamine- or pentagastrin-stimulated gastric acid secretion)
Format: in vivo
Conditions: iv, read-out: ID50 (amount of compound required to inhibit the stimulated secretion by 50%)
Procedure: Compounds of this invention were tested for antisecretory activity in the perfused rat stomach. The method of Ghosh and Schild, Brit. […] J. […] After the secretion plateau was reached, the test compound was administered i.v. and the amount of compound required to inhibit the stimulated secretion by 50% was determined.

[1] = perfused rat stomach, i.v., acid secretion stimulated by infusing either histamine or pentagastrin at a constant rate

`NC(N)=Nc1nc(CSCCNC2=NC(=O)C(Cc3ccccc3)N2)cs1` (centres unmarked) [Compound 74] was tested, and the ED50 [1] was 2.5 mg/kg.

`CCCC=C1NC(NCCSCc2csc(N=C(N)N)n2)=NC1=O` [Compound 88] was tested, and the ED50 [1] was 0.1 mg/kg.

Molecule `CCC(C)C=C1NC(NCCSCc2csc(N=C(N)N)n2)=NC1=O` (centres unmarked) [Compound 93] has an ED50 [1] of 0.07 mg/kg.

With `CC(C)CC1NC(NCCSCc2csc(N=C(N)N)n2)=NC1=O` (centres unmarked) [Compound 71] the ED50 [1] was 0.2 mg/kg.

`NC(N)=Nc1nc(CSCCNC2=NC(=O)C(=Cc3ccc(C(F)(F)F)cc3)N2)cs1` [Compound 83] showed an ED50 [1] of 3.5 mg/kg.

For `NC(N)=Nc1nc(CSCCNC2=NC(=O)C(=Cc3cccc(Oc4ccccc4)c3)N2)cs1` [Compound 96, 2[2-[(2-Guanidino-4-thiazolyl)]methylthio]ethylamino-5-(3-phenoxybenzylidenyl)-imidazolidin-4-one], the ED50 [1] was 10 mg/kg.

For `CCC(C)C1NC(NCCSCc2csc(N=C(N)N)n2)=NC1=O` (centres unmarked) [Compound 70], the ED50 [1] was 1.5 mg/kg.

In the case of `CC1(C)NC(NCCSCc2csc(N=C(N)N)n2)=NC1=O` [Compound 78], the ED50 [1] is reported as 1 mg/kg.

With `CC=C1NC(NCCSCc2csc(N=C(N)N)n2)=NC1=O` [Compound 87] the ED50 [1] was 0.1 mg/kg.

With `NC(N)=Nc1nc(CSCCNC2=NC(=O)C(=Cc3ccco3)N2)cs1` [Compound 85] the ED50 [1] was 0.2 mg/kg.

Molecule `CCCCCC=C1NC(NCCSCc2csc(N=C(N)N)n2)=NC1=O` [Compound 89] has an ED50 [1] of 0.15 mg/kg.

Molecule `NC(N)=Nc1nc(CSCCNC2=NC(=O)C(=Cc3cccnc3)N2)cs1` [Compound 97] has an ED50 [1] of 0.5 mg/kg.

`NC(N)=Nc1nc(CSCCNC2=NC(=O)C(c3ccccc3)(c3ccccc3)N2)cs1` [Compound 77] was tested, and the ED50 [1] was 0.5 mg/kg.

`NC(N)=Nc1nc(CSCCNC2=NC(=O)C(=Cc3ccccc3)N2)cs1` [Compound 80] was tested, and the ED50 [1] was 0.5 mg/kg.

For `CCCCC1NC(NCCSCc2csc(N=C(N)N)n2)=NC1=O` (centres unmarked) [Compound 69], the ED50 [1] was 0.15 mg/kg.

Work on `NC(N)=Nc1nc(CSCCNC2=NC(=O)CN2)cs1` [Compound 64] yielded an ED50 [1] of 0.45 mg/kg.

`NC(N)=Nc1nc(CSCCNC2=NC(=O)C(=CC=Cc3ccco3)N2)cs1` [Compound 86] showed an ED50 [1] of 0.02 mg/kg.

`CCCCCCC1NC(NCCSCc2csc(N=C(N)N)n2)=NC1=O` (centres unmarked) [Compound 72] gave an ED50 [1] of 0.16 mg/kg.

With `NC(N)=Nc1nc(CSCCNC2=NC(=O)C(=Cc3ccc([N+](=O)[O-])cc3)N2)cs1` [Compound 82] the ED50 [1] was 0.6 mg/kg.

With `NC(N)=Nc1nc(CSCCNC2=NC(=O)C(=C3CCCCC3)N2)cs1` [Compound 90] the ED50 [1] was 0.18 mg/kg.

Work on `COc1ccc(C=C2NC(NCCSCc3csc(N=C(N)N)n3)=NC2=O)cc1` [Compound 81] yielded an ED50 [1] of 1.2 mg/kg.

In the case of `CCCCC=C1NC(NCCSCc2csc(N=C(N)N)n2)=NC1=O` [Compound 94], the ED50 [1] is reported as 0.06 mg/kg.

With `CC1NC(NCCSCc2csc(N=C(N)N)n2)=NC1=O` (centres unmarked) [Compound 65] the ED50 [1] was 0.7 mg/kg.

Work on `CC(C)C=C1NC(NCCSCc2csc(N=C(N)N)n2)=NC1=O` [Compound 92] yielded an ED50 [1] of 0.07 mg/kg.

Molecule `CN/C(=N/CCSCc1nc[nH]c1C)NC#N` [Cimetidine, N--cyanoN'--methylN"--{2[(4methyl-5-imidazolyl)methyl-thio]ethyl}guanidin, reference compound] has an ED50 (Rattus norvegicus) of 2.5 mg/kg.

In the case of `CC(C)=C1NC(NCCSCc2csc(N=C(N)N)n2)=NC1=O` [Compound 91], the ED50 [1] is reported as 0.18 mg/kg.
